Assays:
[1] = Inhibition of gamma-secretase-mediated APP cleavage assessed as amyloid beta40 level after 2 hrs by ELISA
[2] = Inhibition of gamma-secretase-mediated notch cleavage after 2 hrs by ELISA
[3] = molecular target: Gamma-secretase (Homo sapiens) (UniProt Q96BI3+Q9NZ42+Q8WW43+P49768+Q92542+P49810); experiment: Inhibition of gamma-secretase-mediated APP cleavage in human SNC cells by ELISA; type: cell-based
Gamma-secretase = experiment: Inhibition of gamma-secretase-mediated notch cleavage in human SNC cells by ELISA; type: cell-based
[4] = Oxidative metabolic stability in human liver microsomes assessed as compound remaining at 2 uM after 30 mins in presence of 1 mM UDPGA; type: ADME, Microsome; conditions: liver microsomes, read-out: Stability
[5] = Oxidative metabolic stability in human liver microsomes assessed as compound remaining at 1 uM after 30 mins in presence of 1 mM NADPH; type: ADME, Microsome; conditions: liver microsomes, read-out: Stability

IC50 [1] [nM]	IC50 [2] [nM]	ED50 [3] [nM]	IC50 (Gamma-secretase) [nM]	remaining at 0.5 h, 2 µM [4] [%]	remaining at 0.5 h, 1 µM [5] [%]	SMILES
1.8	50	6	304	66	22	CC[C@@H]1c2cn[nH]c2C(F)(F)[C@H](CC)N1S(=O)(=O)c1ccc(C(F)(F)F)nc1 (relative stereo)
0.6	21	> 10000	> 40000	59	72	C[C@H]1C(=O)c2[nH]ncc2[C@@H](C2CC2)N1S(=O)(=O)c1ccc(C(F)(F)F)nc1 (relative stereo)
		1850				O=C1c2[nH]ncc2C(C2CC2)N(S(=O)(=O)c2ccc(C(F)(F)F)cn2)C12CC2 (stereo in doubt; 16h)
		0.3				O=S(=O)(c1ccc(C(F)(F)F)nc1)N1C(C2CC2)c2cn[nH]c2C(F)(F)C12CC2 (stereo in doubt; 17b)
1	18	7	418	46	75	C[C@@H]1N(S(=O)(=O)c2ccc(C(F)(F)F)cc2)[C@H](C2CC2)c2cn[nH]c2C1(F)F (relative stereo)
1.9	69	11	995	84	85	O=C1c2[nH]ncc2C(C2CC2)N(S(=O)(=O)c2ccc(C(F)(F)F)cc2)C12CC2 (racemic)
6.5		> 10000	> 40000		19	CCC1c2cn[nH]c2C(=O)CN1S(=O)(=O)c1ccc(C(F)(F)F)cc1 (stereo not drawn)
		87				O=C1c2[nH]ncc2C(C2CC2)N(S(=O)(=O)c2ccc(C(F)(F)F)cn2)C12CC2 (racemic)
1	19	1	187	64	57	O=C1c2[nH]ncc2C(C2CC2)N(S(=O)(=O)c2ccc(C(F)(F)F)nc2)C1C1CCOCC1 (racemic)
0.5	12	2340	> 40000	67	62	CC1C(=O)c2[nH]ncc2C(C2CC2)N1S(=O)(=O)c1ccc(C(F)(F)F)cc1 (stereo not drawn)
		4				O=C1c2[nH]ncc2C(C2CC2)N(S(=O)(=O)c2ccc(C(F)(F)F)nc2)C12CC2 (stereo in doubt; 16f)
5.6	193	6000	> 40000	42	5	O=C1CN(S(=O)(=O)c2ccc(C(F)(F)F)nc2)C(C2CC2)c2cn[nH]c21 (racemic)
0.5	14	33	2300	82	0	CC(C)[C@H]1C(=O)c2[nH]ncc2[C@@H](C(C)C)N1S(=O)(=O)c1ccc(C(F)(F)F)cc1 (relative stereo)
1.8	35		688	91	86	O=C1c2[nH]ncc2C(C2CC2)N(S(=O)(=O)c2ccc(C(F)(F)F)nc2)C12CC2 (racemic) [4'-CYCLO PROPYL-5'-(6-(TRIFLUORO METHYL)PYRIDIN-3-YL SULFONYL)-4',5'-DIHYDROSPIRO[CYCLOPROPANE-1,6'-PYRAZOLO[4,3-C]PYRIDIN]-7'(1'H)-ONE (ENANTIOMERIC MIX)]
0.1	5	5	288	65	10	CC[C@@H]1c2cn[nH]c2C(=O)[C@H](CC)N1S(=O)(=O)c1ccc(Cl)cc1 (stereo in doubt)
9.1	354	> 10000	> 40000			O=C1CN(S(=O)(=O)c2ccc(C(F)(F)F)cc2)[C@H](C2CC2)c2cn[nH]c21

IC50 [1] [nM]	IC50 [2] [nM]	ED50 [3] [nM]	IC50 (Gamma-secretase) [nM]	remaining at 0.5 h, 2 µM [4] [%]	remaining at 0.5 h, 1 µM [5] [%]	SMILES
		86				O=S(=O)(c1ccc(C(F)(F)F)nc1)N1C(C2CC2)c2cn[nH]c2C(F)(F)C12CC2 (stereo in doubt; 17c)
2	18	7	576		1	O=C1c2[nH]ncc2C(C2CC2)N(S(=O)(=O)c2ccc(Cl)s2)C12CC2 (racemic)
		26				O=C1c2[nH]ncc2C(C2CC2)N(S(=O)(=O)c2ccc(C(F)(F)F)cn2)C12CC2 (stereo in doubt; 16i)
		2680				O=C1c2[nH]ncc2C(C2CC2)N(S(=O)(=O)c2ccc(C(F)(F)F)nc2)C12CC2 (stereo in doubt; 16e)
24	502		6210	89	76	O=C1c2[nH]ncc2C(C2CC2)N(S(=O)(=O)c2ccc(C(F)(F)F)cn2)C12CC2 (racemic) [4'-CYCLOPROPYL-5'-(5-(TRIFLUORO METHYL)PYRIDIN-2-YL SULFONYL)-4',5'-DIHYDROSPIRO[CYCLOPROPANE-1,6'-PYRAZOLO[4,3-C]PYRIDIN]-7'(1'H)-ONE (ENANTIOMERIC MIX)]
0.7	17	> 1000	4000		9	O=C1c2[nH]ncc2C(C2CC2)N(S(=O)(=O)c2ccc(C(F)(F)F)nc2)C1c1cc(F)cc(F)c1 (racemic)
		0.5				O=S(=O)(c1ccc(C(F)(F)F)nc1)N1C(C2CC2)c2cn[nH]c2C(F)(F)C12CC2 (racemic)
0.2	6		71	66	8	CC(C)(C)C1C(=O)c2[nH]ncc2C(C2CC2)N1S(=O)(=O)c1ccc(C(F)(F)F)nc1 (stereo in doubt; 3t) [6-TERT-BUTYL-4-CYCLOPROPYL-5-(6-(TRIFLUOROMETHYL)PYRIDIN-3-YLSULFONYL)-5,6-DIHYDRO-1H-PYRAZOLO[4,3-C]PYRIDIN-7(4H)-ONE (STRUCTURAL MIX)]
3.2	126	> 10000	> 40000		14	COC[C@H]1C(=O)c2[nH]ncc2[C@@H](C2CC2)N1S(=O)(=O)c1ccc(C(F)(F)F)cc1 (relative stereo)
		7				O=C1c2[nH]ncc2C(C2CC2)N(S(=O)(=O)c2ccc(C(F)(F)F)nc2)C12CC2 (racemic)
		16				CC(C)(C)C1C(=O)c2[nH]ncc2C(C2CC2)N1S(=O)(=O)c1ccc(C(F)(F)F)nc1 (stereo in doubt; 3u)
		0.6				CC(C)(C)C1C(=O)c2[nH]ncc2C(C2CC2)N1S(=O)(=O)c1ccc(C(F)(F)F)nc1 (stereo in doubt; 3t)
0.4	8	2	235		3	O=C1c2[nH]ncc2C(C2CC2)N(S(=O)(=O)c2ccc(C(F)(F)F)cc2)C12CCCC2 (racemic)
91	2270	> 10000	> 40000		62	C[C@@H]1C(=O)c2[nH]ncc2[C@H](C)N1S(=O)(=O)c1ccc(C(F)(F)F)nc1 (stereo in doubt)
0.3		6	546	77	6	CC[C@@H]1C(=O)c2[nH]ncc2[C@H](CC)N1S(=O)(=O)c1ccc(Cl)cc1 (stereo in doubt)
